Measurements taken from US4286089A, “7-Acyl-3-(substituted tetrazolyl thiomethyl)cephalosporins” (SmithKline Corporation, priority 1974, dated 1981).

Tested on: E. coli 12140
Assay: In vivo mouse protection, E. coli 12140
Conditions: Escherichia coli, po, E. coli 12140, p.o.
Excerpt: Compound names corresponding to numbers are given in the experimental section. For comparative purposes, data for cephamandole, which is 7-mandelamido-3-(1-methyltetrazol-5-ylthiomethyl)-3-cephem-4-carboxylic acid, is also given in Tables 1 and 2.

## N[C@@H](C(=O)NC1C(=O)N2C(C(=O)O)=C(CSc3nnnn3CC(=O)O)CS[C@H]12)c1ccc(O)cc1 (stereo partly drawn) [II, 7-(D-α-Amino-4-hydroxyphenylacetamido)-3-(1-carboxymethyl-tetrazol-5-ylthiomethyl)-3-cephem-4-carboxylic acid]
  ED50: 200 mg/kg
